This is an account of results in patent US20220296669A1, “NOVEL COMPOSITIONS AND USES THEREOF” (priority 2019, published 2022).

Experiment [1] deals with Human Dermal Fibroblasts, adult (HDFa). Put plainly: Fibroblast adherence on coated surfaces, scanning electron microscopy. It counts as cell-based. Conditions: with PLL as intermediate layer vs without PLL and other parts of collagen VI, measured in cells/mm^2; for fibroblast adherence on collagen I scaffolds: FIG. 11; for fibroblast adherence on titanium surfaces: titanium surface, FIG. 7. As to the method: (§1) Collagen I scaffolds and titanium surfaces were coated with collagen VI microfibrils, each of collagen VI alpha 1-3 chains and the bioactive collagen VI peptides GVR28, FYL25, FFL25, VTT30, and SFV33 as described in Examples 1 and 2 above.
(§2) Adherence of fibroblasts or keratinocytes was assessed by scanning electron microscopy.
(§3) Cells and culture conditions—Keratinocytes (Human Epidermal Keratinocytes, adult (HEKa), C-005-5C, Gibco) and fibroblasts (Human Dermal Fibroblasts, adult (HDFa), C0135C, Gibco) were purchased from Thermo Fisher Scientific, Waltham, USA. Cryopreserved cells were thawed according to the manufacturer's protocol and seeded on three 75 mL tissue culture flasks, each containing 15 mL of keratinocyte basal medium (KBM; KBM Gold, Lonza Group AG, Basel, Switzerland). The medium was supplemented with transferrin, recombinant human epidermal growth factor (rhEGF), bovine pituitary extract (BPE), antibiotics (Gentamycin: GA-1000), insulin, epinephrine and hydrocortisone (PeproTech, New Jersey, USA). For fibroblasts, complete growth medium consisting of Dulbecco's modified eagle medium (D-MEM) with 100 mM sodium pyruvate (PAA Laboratories, Pasching, Austria), supplemented with 10% fetal bovine serum (FBS) (PAA Laboratories, Pasching, Austria) and 2 mM L-glutamine (Invitrogen, Carlsbad, USA), was used. Medium was changed every day and substituted with additional rhEGF at a final dilution of 1:1000. The cells were incubated for seven days until they reached confluency. The cells were harvested by trypsinization (TrypLE™ Select (1x), Life Technologies Corporation, Carlsbad, USA) and transferred into freezing medium, containing 1% BSA (Sigma Aldrich, St. Louis, USA) and 10% DMSO (Sigma-Aldrich, St. Louis, USA). 1 mL aliquots of the cell suspension were transferred into cryotubes. The cryotubes were transferred to the freezer at −80° C. for 24 hours and then finally stored in liquid nitrogen until further use.
(§4) Cell attachment—Cells were gently thawed and counted in a hemocytometer using trypan blue (Fisher Scientific, Waltham, USA) to estimate the number of live/dead cells. They were finally diluted in appropriate media to final cell concentrations of 16700 viable cells/mL. 300 μL cell solution were added on top of punched out titanium or collagen I scaffold samples, followed by incubation at 37° C. for 1 hour. Growth medium was removed and the cells were gently washed twice with PBS. The cells were then fixed by the addition of 4% formaldehyde in PBS, followed by incubation at 4° C. for 20 minutes. Finally, cells were rinsed three times in PBS and stored in 3 mL PBS until further evaluation by scanning electron microscopy.

Experiment [2] has as its system Human Epidermal Keratinocytes, adult (HEKa). Put plainly: Keratinocyte adherence on coated surfaces, scanning electron microscopy. It counts as cell-based. Conditions: with PLL as intermediate layer vs without PLL and other parts of collagen VI; for keratinocyte adherence on collagen I scaffolds: FIG. 12; for keratinocyte adherence on titanium surfaces: titanium surface, FIG. 8. The procedure:
as §1, §2, §3, §4

Experiment [3] can be described thus: 131-iodine coating efficiency (binding) assay on titanium surfaces with/without PLL precoating. As to conditions: with PLL as intermediate layer vs without PLL / controls. As to the method:
Materials—Titanium discs with a diameter and thickness of 5 mm and 0.25 mm, respectively, and with a maximum average roughness (Ra) of 0.8 μm, were punched out from a commercially available titanium foil (Alfa Aesar GmbH & Co. KG, Karlsruhe, Germany). ε-poly-L-lysine hydrobromide (PLL, 30,000-150,000 g/mol) was purchased from Sigma-Aldrich, St. Louis, USA. Collagen VI and its derived peptides were prepared as described in [18]. LL-37 was a kind gift of Dr. Artur Schmidtchen, University of Lund. NAT26, HKH20, GGL27 were kind gifts of Dr. Inga-Maria Frick, University of Lund. α defensins 3-6 and β defensins 1-4 were kind gifts of Dr. Arne Egesten, University of Lund. Proteins were radiolabeled with 131-iodine according to standard protocols prior to coating assays on collagen scaffold surfaces.
Biomaterial surface coating with PLL—Titanium discs were degreased with chloroform and 97% ethanol, followed by rinsing with distilled water, and air-drying at room temperature. Subsequently, prior to collagen coating, 150 μl poly-L-lysine hydrobromide (70,000-150,000 g/mol, Sigma-Aldrich, St. Louis, USA, 0.2 mg/ml) were applied on desired titanium discs by incubation at 60° C. for 2 hours. Afterwards, the titanium was washed twice in distilled water to remove unbound PLL, air-dried and stored at room temperature.
(§5) Biomaterial surface coating with bioactive collagen VI molecules—Titanium discs, after prior treatment with PLL, were put into 24-well cell culture plates (TPP, Trasadingen, Switzerland). They were coated by incubation with 150 μl collagen type VI peptides (concentration 3 μM), at 4° C. for 2 hours, followed by rinsing with distilled water and air-drying. The coating efficiencies of the different biomolecules were assessed by determining the ratio between bound and free 131-iodine radioactivity associated with titanium discs by determining radioactivity as cpm values in a γ-counter.

Another experiment concerns collagen I scaffolds. Put plainly: 131-iodine coating efficiency (binding) assay on collagen I scaffolds with/without PLL precoating. As to conditions: with PLL as intermediate layer vs without PLL / controls, 1 mm thin and 2 mm thick scaffolds. The procedure:
Materials—MDS Collagen was obtained from MedSkin Solutions Dr. Suwelack A G (MDS). 1 mm thickness refers to thin, and 2 mm thickness refers to thick collagen scaffold, respectively. c-poly-L-lysine hydrobromide (PLL, 30 000-150 000 g/mol) was purchased from Sigma-Aldrich, St. Louis, USA. Collagen VI and its derived peptides were prepared as described in [18]. LL-37 was a kind gift of Dr. Artur Schmidtchen, University of Lund. NAT26, HKH20, GGL27 were kind gifts of Dr. Inga-Maria Frick, University of Lund. α defensins 3-6 and β defensins 1-4 were kind gifts of Dr. Arne Egesten, University of Lund. Proteins were radiolabeled with 131-iodine according to standard protocols prior to coating assays on collagen scaffold surfaces.
Biomaterial surface coating with PLL—collagen scaffold discs with a diameter of 5 mm and thickness of 2 mm (thick scaffold) and 1 mm (thin scaffold), respectively, were punched out from a larger sheet (approximately 10 cm×10 cm). Prior to collagen coating, 150 μl poly-L-lysine hydrobromide solution (0.2 mg/ml) were applied on the collagen scaffold discs by incubation at 60° C. for 2 h. Afterwards the discs were washed twice in distilled water to remove unbound PLL, air-dried and stored at room temperature.
as §5, with “molecules—collagen scaffold” for “molecules—Titanium”, “μl bovine collagen VI microfibrils (concentration 15 μM), or with 150 μl” for “μl”, “μM), or with […] LL-37, NAT26, HKH20, GGL27, α defensins 3-6 and β defensins 1-4” for “μM),”, “h,” for “hours,”, “collagen scaffolds” for “titanium discs”

The next experiment deals with Staphylococcus aureus. Put plainly: Gram-positive bacterial killing efficiency on coated surfaces, scanning electron microscopy. It counts as cell-based. Conditions: with PLL as intermediate layer vs without PLL and other parts of collagen VI; for killing of Staphylococcus aureus on collagen I scaffolds: collagen I scaffolds 1 mm / 2 mm, FIG. 10; for killing of Staphylococcus aureus on titanium surfaces: titanium surface, FIG. 6. The procedure:
(§6) Collagen I scaffolds and titanium surfaces were coated with collagen VI microfibrils, each of collagen VI alpha 1-3 chains and the bioactive collagen VI peptides GVR28, FYL25, FFL25, VTT30, and SFV33 as described in Examples 1 and 2 above, respectively.
(§7) Killing efficiency of the gram-negative Pseudomonas aeruginosa bacteria and the gram-positive Staphylococcus aureus were assessed by scanning electron microscopy. For killing efficiency and scanning electron microscopy experiments, titanium scaffold discs with a size of 5 mm and a thickness of 0.25 mm, and collagen I scaffold discs with a size of 5 mm and a thickness of 1 mm (thin scaffold) or 2 mm (thick scaffold), respectively, were punched out and coated with PLL as described in Examples 1 and 2 above. They were subsequently incubated with 500 μL of bacterial suspension (5×10^8 cfu/ml bacteria) and incubated for 2 hours at 37° C. in a humid atmosphere containing 5% CO2.
(§8) The discs were then prepared for scanning electron microscopy. In short, samples were incubated overnight at 4° C. with fixation buffer (0.15M sodium cacodylate, pH 7.4, containing 2.5% v/v glutaraldehyde) and subsequently washed with cacodylate buffer (0.15M sodium cacodylate, pH 7.4), followed by a standard dehydration series with ethanol-water mixtures. Specimens were then dried in liquid CO2, using ethanol as an intermediate solvent. Samples were mounted on aluminium discs and coated with 20 nm gold/palladium. Finally, samples were investigated with an XL 30 FEG scanning electron microscope and images were processed by AnalySIS ITEM software. Viable and non-viable bacteria were directly identified and quantified under in the scanning electron microscope due to their structural differences.

Another experiment concerns Pseudomonas aeruginosa. Put plainly: Gram-negative bacterial killing efficiency on coated surfaces, scanning electron microscopy. It counts as cell-based. Conditions: with PLL as intermediate layer vs without PLL and other parts of collagen VI; for killing of Pseudomonas aeruginosa on collagen I scaffolds: collagen I scaffolds 1 mm / 2 mm, FIG. 9; for killing of Pseudomonas aeruginosa on titanium surfaces: titanium surface, FIG. 5. The procedure:
as §6, §7, §8

Setting [4] is: listed as collagen type VI alpha-3 chain.

With “FFLKDFSTKRQIIDAINKVVYKGGR (FFL25 peptide)”, in experiment [1], the “fibroblast adherence on collagen I scaffolds” value is on record as “considerably enhanced” and the “fibroblast adherence on titanium surfaces” value is reported as “considerably enhanced”. For the same substance, in experiment [2], the “keratinocyte adherence on collagen I scaffolds” value was “considerably enhanced” and the “keratinocyte adherence on titanium surfaces” value was “considerably enhanced”. In addition, in experiment [3], the “coating efficiency (binding) on titanium surfaces” value is on record as “superior coating”. Also, the “coating efficiency (binding) on collagen I scaffolds” value in the experiment on collagen I scaffolds was “superior coating”.
“FYLKTYRSQAPVLDAIRRLRLRGGS (FYL25 peptide)”: the “coating efficiency (binding) on titanium surfaces” value in experiment [3] is on record as “superior coating”. In addition, the “coating efficiency (binding) on collagen I scaffolds” value in the experiment with collagen I scaffolds is “superior coating”.
With “GVRPDGFAHIRDFVSRIVRRLNIGPSKV (GVR28 peptide)”, in experiment [1], the “fibroblast adherence on collagen I scaffolds” value is listed as “considerably enhanced” and the “fibroblast adherence on titanium surfaces” value is reported as “considerably enhanced”. Also, in experiment [2], the “keratinocyte adherence on collagen I scaffolds” value is on record as “considerably enhanced” and the “keratinocyte adherence on titanium surfaces” value is “considerably enhanced”. For the same substance, the “coating efficiency (binding) on titanium surfaces” value in experiment [3] is given as “superior coating”. The “coating efficiency (binding) on collagen I scaffolds” value in the experiment with collagen I scaffolds is “superior coating”.
Consider “SFVARNTFKRVRNGFLMRKVAVFFSNTPTRASP (SFV33 peptide)”, for which, in the experiment with Staphylococcus aureus, the “killing of Staphylococcus aureus on collagen I scaffolds” value is recorded as “considerably enhanced” and the “killing of Staphylococcus aureus on titanium surfaces” value is recorded as “considerably enhanced”. Further, the “coating efficiency (binding) on titanium surfaces” value in experiment [3] is on record as “superior coating”. Further, in the experiment on Pseudomonas aeruginosa, the “killing of Pseudomonas aeruginosa on collagen I scaffolds” value is listed as “considerably enhanced” and the “killing of Pseudomonas aeruginosa on titanium surfaces” value was “considerably enhanced”. The “coating efficiency (binding) on collagen I scaffolds” value with collagen I scaffolds is “superior coating”.
For the substance “VTTEIRFADSKRKSVLLDKIKNLQVALTSK (VTT30 peptide)”, in experiment [1], the “fibroblast adherence on collagen I scaffolds” value is on record as “considerably enhanced” and the “fibroblast adherence on titanium surfaces” value is on record as “considerably enhanced”. Also, in experiment [2], the “keratinocyte adherence on collagen I scaffolds” value is reported as “considerably enhanced” and the “keratinocyte adherence on titanium surfaces” value is “considerably enhanced”. Moreover, in experiment [3], the “coating efficiency (binding) on titanium surfaces” value is “superior coating”. Moreover, the “coating efficiency (binding) on collagen I scaffolds” value in the experiment on collagen I scaffolds is on record as “superior coating”.
In the case of “collagen VI alpha-3 chain: alpha-3 polypeptide chain of collagen type VI (UniProt P12111)”, in experiment [1], the “fibroblast adherence on collagen I scaffolds” value was “considerably enhanced” and the “fibroblast adherence on titanium surfaces” value is “considerably enhanced”. Besides, in experiment [2], the “keratinocyte adherence on collagen I scaffolds” value is recorded as “considerably enhanced” and the “keratinocyte adherence on titanium surfaces” value is recorded as “considerably enhanced”. Further, in the experiment with Staphylococcus aureus, the “killing of Staphylococcus aureus on collagen I scaffolds” value was “considerably enhanced” and the “killing of Staphylococcus aureus on titanium surfaces” value was “considerably enhanced”. In addition, in experiment [3], the “coating efficiency (binding) on titanium surfaces” value is “considerably enhanced”. In experiment [3] (setting [4]), the “coating efficiency (binding) on titanium surfaces” value was “superior coating”. Further, in the experiment on Pseudomonas aeruginosa, the “killing of Pseudomonas aeruginosa on collagen I scaffolds” value is recorded as “considerably enhanced” and the “killing of Pseudomonas aeruginosa on titanium surfaces” value is on record as “considerably enhanced”. Further, in the experiment on collagen I scaffolds, the “coating efficiency (binding) on collagen I scaffolds” value is “considerably enhanced”. In addition, the “coating efficiency (binding) on collagen I scaffolds” value in the experiment with collagen I scaffolds (setting [4]) is given as “superior coating”.
